According to US11013830B2, “5-hydroxytryptamine 1B receptor-stimulating agent for enhancing in vivo engraftment potential” (INSTITUT PASTEUR, priority 2015, dated 2021):

Columns and labels:
[1] = system: muscle stem cells; experiment: Engraftment of grafted muscle stem cells (satellite cells) in cardiotoxin-injured tibialis anterior of Rag-/-γC-/- mice; format: in vivo; conditions: 28 days post injury
Procedure: For image analysis, ImageJ 1.46r software was using between 10 different photos randomly taken per section and 3 sections minimum per experimental group. The pictures were converted in a binary image and then the pixel values were collected. For fibre size, the sections were immunostained with rabbit anti Laminin (Sigma-Aldrich #L9393) diluted at 1/200, overnight at 4° C. Secondary Donkey ant Rabbit 488 (DL488 JacksonImmuno #711486152) were used at 1/200 45 minutes at room temperature. The fibre perimeter was done automatically by using Pixcavator® software.
In order to investigate the potential effect of fluoxetine and vortioxetine on the muscle engraftment potential, Rag^−/−γC^−/− immunodeficient mice (Sanchez et al., 2013) were used in this study. Mice were injured with cardiotoxin in the tibialis anterior (TA) and injected with 10,000 satellite cells (SC) 24 hours after the injury. The satellite cells (SC) were obtained from Tg:Pax7nGFP::PLAP mice (Deprimo et al., 1996; Rocheteau et al., 2012), allowing the prospective isolation of a pure population of SC by FACS (Pax7 being a specific marker of SC) and the follow up (PLAP placental alkaline phosphatase being an ubiquitous marker). The TA had been sampled 28 days post engraftment and the number of PLAP fibres was counted.
The Rag^−/−γC^−/− were treated for 6 weeks with fluoxetine per os at 18 mg/Kg at the time of the graft and the treatment continued during the regeneration process (FIG. 1a). When regeneration was completed 28 days post injury, the percentage of PLAP positive fibres was 20.5%±6.5 against 36%±6.2 in the treated animals (p=0.016; n=5, FIG. 1b-d).
To investigate the potential effect of vortioxetine on the engraftment potential, the same approach was used. The Rag^−/−γC^−/− were treated for 12 days by intra peritoneal injections at 20 mg/Kg. Twelve days after the beginning of the treatment, the mice were injured and grafted with Pax7nGFP:PLAP SC. The treatment was continuous during the entire regenerative process (FIG. 1e). 28 days post injury the TA were sampled and stained for Laminin and PLAP. 19%±7.7 fibres were PLAP+ after placebo treatment against 36.1%±5.7 in the vortioxetine treated animals (p=0.028, n=4, FIG. 1f-h).

[2] = system: bone marrow cells; experiment: Engraftment of Tg:ActinGFP bone marrow cells in irradiated Rag-/-γc-/- mice, GFP+ cells by cytometry; format: in vivo
Description: For bone marrow analysis, animals were sacrificed and bone marrow was flushed and filtered through 40 μm cell strainer. The bulk was then directly assessed using Gallios A94303 (Beckman Coulter) and analysed with Kaluza flow cytometry software.
In order to investigate the potential effect of fluoxetine and vortioxetine on the bone marrow engraftment potential, Rag^−/−γc^−/− immunodeficient mice were used. These mice were irradiated at 95 cGy and then injected intravenously with 2 million cells taken from Tg:ActinGFP mouse (Okabe et al., 1997), to track the fate of the grafted cells.
Rag^−/−γc^−/− mice were treated with fluoxetine per os at 18 mg/Kg for 6 weeks. […] The number of GFP+ cells were investigated after 5 weeks in the bone marrow (the treatment was never discontinued). 63.7%±6.5 of GFP+ cells were detected in the placebo mice and 80.7%±8.4 GFP+ cells in the fluoxetine treated mice (p=0.0023, n=7, FIG. 2b,c). There was thus a 25% increase in engraftment efficiency in the fluoxetine treated animals.
To investigate the potential effect of vortioxetine on the engraftment potential, the same approach was used. The Rag^−/−γc^−/− were treated for 12 days by intra peritoneal injections at 20 mg/Kg. Twelve days after the beginning of the treatment, the mice were irradiated at 95 cGy and intravenously grafted with 2 million freshly isolated bone marrow cells from Tg:ActinGFP. 5 weeks after grafting the mice were sacrificed and bone marrow was flushed and analysed (FIG. 2d). The number of GFP+ cells was investigated after 5 weeks in the bone marrow (the treatment was never discontinued). 65.8%±5.5 cells were found in the placebo mice while 80.2%±5.8 cells were found in the vortioxetine treated animals (p=0.0079, n=5, FIG. 2e). There was thus a 21% increase in engraftment potential of bone marrow cells after vortioxetine treatment.
To further characterise the timing of vortioxetine beneficial effects, the previous experiment was repeated without 12 days of pre-treatment (FIG. 2e,f). Rag^−/−γc^−/− were irradiated and grafted 2 hours post irradiation fresh bone marrow from Tg:ActinGFP mice. The same placebo was used displaying 65.8%±5.5 of GFP+ cells and 77.2%7.6 GFP+ cells in the vortioxetine treated animals at the time of the irradiation (p=0.04, n=5, FIG. 2e,g). A similar increase in engraftment potential (17%) was observed when animals were not pre-treated.

[3] = system: muscle stem cells; conditions: fluoxetine 18 mg/Kg for 6 weeks; after 21 days; n=8; placebo 25.7%±8.7
Procedure: Mice were anesthetised and injured with cardiotoxin 18 hours before grafting in the tibialis anterior. Before grafting the mice were anesthetised again and grafted with 10,000 cells in 40 nl in PBS. Mice were kept for 28 days until muscle regeneration was complete. […] Mice were sacrificed 5 weeks after the injection.
Tibialis anterior was carefully dissected and snap frozen in liquid-nitrogen-cooled isopentane for a few minutes and stored at −80° C. prior to cryosectioning (10 μm sections). Sections were kept at room temperature overnight before staining. Sections were then rehydrated in PBS for 10 minutes and fixed in 10% formalin for 3 minutes. The sections were then routinely stained with PLAP antibody manually.
Fluoxetine treatment was provided at 18 mg/Kg for 6 weeks to Rag^−/−γc^−/− mice. The tibialis anterior (TA) was injured and 18 h post injury 10,000 satellite cells (SC) coming from Tg:Pax7nGFP:PLAP:MyHC2E3FLacZ triple transgenic mice were grafted to the Rag^−/−γc^−/− mice pre-treated with fluoxetine.

| SMILES | percentage of PLAP+ fibres ([1]; vortioxetine intra peritoneal 20 mg/Kg for 12 days before graft and continued, n=4, placebo 19%±7.7) | engraftment potential of the injected SC versus placebo ([1]; vortioxetine intra peritoneal 20 mg/Kg, 12 days pre-treatment) | increase in engraftment potential of bone marrow cells versus placebo ([2]; vortioxetine 20 mg/Kg, 12 days pre-treatment, 5 weeks after grafting) [%] | GFP+ cells in the bone marrow ([2]; vortioxetine intra peritoneal 20 mg/Kg for 12 days before irradiation/graft, never discontinued, 5 weeks after grafting, n=5, placebo 65.8%±5.5) | GFP+ cells in the bone marrow ([2]; vortioxetine started at the time of the irradiation, without 12 days of pre-treatment, 5 weeks after grafting, n=5, placebo 65.8%±5.5) [%] | increase in engraftment potential versus placebo ([2]; vortioxetine, animals not pre-treated) [%] | percentage of PLAP positive fibres ([1]; fluoxetine per os 18 mg/Kg for 6 weeks before graft and continued, n=5, placebo 20.5%±6.5) | engraftment potential of the injected SC versus placebo ([1]; fluoxetine per os 18 mg/Kg, 6 weeks pre-treatment) | GFP+ cells in the bone marrow ([2]; fluoxetine per os 18 mg/Kg for 6 weeks before irradiation/graft, never discontinued, 5 weeks after grafting, n=7, placebo 63.7%±6.5) | increase in engraftment efficiency versus placebo ([2]; fluoxetine per os 18 mg/Kg, 6 weeks pre-treatment, 5 weeks after grafting) [%] | percentage of fibers PLAP+ (coming from the graft) [3] |
| --- | --- | --- | --- | --- | --- | --- | --- | --- | --- | --- | --- |
| Cc1ccc(Sc2ccccc2N2CCNCC2)c(C)c1 [vortioxetine, 1-[2-(2,4-Dimethylphenylsulfanyl)phenyl]piperazine] | 36.1%±5.7 | more than doubled | 21 | 80.2%±5.8 | 77.2 | 17 | – | – | – | – | – |
| CNCCC(Oc1ccc(C(F)(F)F)cc1)c1ccccc1 (centres unmarked) [fluoxetine] | – | – | – | – | – | – | 36%±6.2 | almost doubled | 80.7%±8.4 | 25 | 39%±6.6 |
